C/C(=C/C(C)=N/c1c(C(C)C)cccc1C(C)C)Nc1c(C(C)C)cccc1C(C)C
solubility (mole fraction)
Conditions | in THF | in ethanol | in methanol | in n-hexane | in toluene
268.15 K | 0.101 | 0.0008 | – | 0.0374 | 0.054
273.15 K | 0.108 | 0.0009 | – | 0.0417 | 0.061
278.15 K | 0.114 | 0.001 | – | 0.0464 | 0.0673
283.15 K | 0.122 | 0.0013 | 0.0001 | 0.048 | 0.078
288.15 K | 0.138 | 0.0015 | 0.0002 | 0.0546 | 0.087
293.15 K | 0.15 | 0.0019 | 0.0002 | 0.0609 | 0.099
298.15 K | 0.169 | 0.0022 | 0.0003 | 0.0699 | 0.108
303.15 K | 0.184 | 0.0025 | 0.0004 | 0.078 | 0.127
308.15 K | 0.199 | 0.003 | 0.0005 | 0.0891 | 0.145
313.15 K | 0.223 | 0.0036 | 0.0007 | 0.103 | 0.151
318.15 K | – | – | 0.0008 | – | –
